The source of these data is patent US20080311126A1, “Antisense Oligonucleotides Directed to Ribonucleotide Reducatase R2 and Uses Thereof in Combination Therapies for the Treatment of Cancer” (Genesense Technologies, Inc, priority 2004, published 2008).

What all share (assay): Relative colony forming efficiency (Example 17, Table 13)
What all share (assay type): cell-based, human

The test system of series [1] is A549 lung cell carcinoma. As to conditions: averages of 2-8 determinations. As for the experimental part:
(§1) Colony forming efficiency was determined using standard protocols. […] The test oligonucleotides were added to cell cultures in the presence of 2.5 μg of DOTMA/DOPE (Lipofectin; Life Technologies, Inc.) for four hours. The oligonucleotide was tested at 0.2 μM unless otherwise indicated. Controls were the cultures treated with lipofectin but without the oligonucleotide. […] Surviving cells were visualized by methylene blue staining, and colonies were scored. In some experiments cell aliquots were removed from the culture and viability was determined using the trypan blue exclusion test. Results were analyzed as percent of surviving cells compared to control cells. To test the antisense effects of many of these sequences as phosphorthioate deoxyribonucleotides, they were examined in relative colony forming experiments conducted as described in Example 16 with a series of human tumour cell lines. The results (shown as % inhibition of colony forming ability) obtained with cancer cells derived from the bladder, breast, lung, colon, pancreas, prostate, liver and cervix, are shown in Table 13. The specific cell lines employed are as follows: […]

Series [2] concerns MDA PaCa-2 pancreatic cell carcinoma. As to conditions: MIA PaCa-2 pancreatic cell carcinoma; averages of 2-8 determinations. As for the experimental part: as §1
In series [3] the test system is MDA-MB-231 breast cell adenocarcinoma. As to conditions: averages of 2-8 determinations. The protocol:
as §1

Series [4] has as its system PC-3 prostrate cell adenocarcinoma. As to conditions: averages of 2-8 determinations. The protocol: as §1
In series [5] the test system is T24 bladder cell carcinoma. The conditions noted are these: averages of 2-8 determinations. The protocol: as §1
For series [6], the system named is HCT116 colon cell carcinoma. As to conditions: averages of 2-8 determinations. The protocol:
as §1

Series [7] concerns HepG2 hepatocellular carcinoma. The conditions noted are these: averages of 2-8 determinations. The protocol:
as §1

Oligonucleotides are written 5' to 3', each unit as a sugar letter and its base; * is a phosphorothioate linkage, no mark a phosphodiester; rarer units and linkages stand in square brackets, end groups in braces. Plain capitals give the bases only. d = 2'-deoxy (DNA)

As to “TTTTAACTGGCTGTGCTGGT (antisense dT*dT*dT*dT*dA*dA*dC*dT*dG*dG*dC*dT*dG*dT*dG*dC*dT*dG*dG*dT) [AS-II-1666-20]”, the “Reduced relative colony forming efficiency, A549 (% inhibition of colony forming ability)” value in series [1] is 54.82%. Moreover, the “Reduced relative colony forming efficiency, MIA PaCa-2 (% inhibition of colony forming ability)” value in series [2] is 49.72%. Moreover, in series [3], the “Reduced relative colony forming efficiency, MDA-MB-231 (% inhibition of colony forming ability)” value turned out to be 26.71%. For the same sequence, in series [4], the “Reduced relative colony forming efficiency, PC-3 (% inhibition of colony forming ability)” value came to 86.06%. The “Reduced relative colony forming efficiency, T24 (% inhibition of colony forming ability)” value in series [5] was determined as 71.71%.
For “TGGCTGTGCTGGTTAAAGGA (antisense dT*dG*dG*dC*dT*dG*dT*dG*dC*dT*dG*dG*dT*dT*dA*dA*dA*dG*dG*dA) [AS-II-1659-20]”, in that order: 54.7%, 42.54%, 42.86%, 81.56% and 74.09%.
Regarding “AACCGGAAAAGAAAATGCCT (antisense dA*dA*dC*dC*dG*dG*dA*dA*dA*dA*dG*dA*dA*dA*dA*dT*dG*dC*dC*dT) [AS-II-890-20]”, the “Reduced relative colony forming efficiency, A549 (% inhibition of colony forming ability)” value in series [1] stood at 81.6%. Also, the “Reduced relative colony forming efficiency, MIA PaCa-2 (% inhibition of colony forming ability)” value in series [2] came out at 66.02%. Further, in series [3], the “Reduced relative colony forming efficiency, MDA-MB-231 (% inhibition of colony forming ability)” value is reported as 88.2%. In addition, the “Reduced relative colony forming efficiency, PC-3 (% inhibition of colony forming ability)” value in series [4] was found to be 87.93%. In addition, in series [5], the “Reduced relative colony forming efficiency, T24 (% inhibition of colony forming ability)” value was 82.07%.
As to “ATCCAGCGCAAGGCCCAGTC (antisense dA*dT*dC*dC*dA*dG*dC*dG*dC*dA*dA*dG*dG*dC*dC*dC*dA*dG*dT*dC) [AS-II-816-20]”, the “Reduced relative colony forming efficiency, A549 (% inhibition of colony forming ability)” value in series [1] turned out to be 78.4%. Also, the “Reduced relative colony forming efficiency, HCT116 (% inhibition of colony forming ability)” value in series [6] is 88.22%. Also, in series [7], the “Reduced relative colony forming efficiency, HepG2 (% inhibition of colony forming ability)” value came out at 93.08%. In series [2], the “Reduced relative colony forming efficiency, MIA PaCa-2 (% inhibition of colony forming ability)” value came out at 93.21%. Further, in series [4], the “Reduced relative colony forming efficiency, PC-3 (% inhibition of colony forming ability)” value is recorded as 94.08%. In series [5], the “Reduced relative colony forming efficiency, T24 (% inhibition of colony forming ability)” value stood at 73.91%.
Turning to “TGGCACCAACTGACTAATAT (antisense dT*dG*dG*dC*dA*dC*dC*dA*dA*dC*dT*dG*dA*dC*dT*dA*dA*dT*dA*dT) [AS-II-1976-20]”, the “Reduced relative colony forming efficiency, MDA-MB-231 (% inhibition of colony forming ability)” value in series [3] was found to be 89.6%. Further, the “Reduced relative colony forming efficiency, PC-3 (% inhibition of colony forming ability)” value in series [4] is recorded as 88.16%.
Take “ATTAAAATCTGCGTTGAAGC (antisense dA*dT*dT*dA*dA*dA*dA*dT*dC*dT*dG*dC*dG*dT*dT*dG*dA*dA*dG*dC) [AS-II-1700-20]”: the “Reduced relative colony forming efficiency, A549 (% inhibition of colony forming ability)” value in series [1] is 77.28%. For the same sequence, the “Reduced relative colony forming efficiency, MIA PaCa-2 (% inhibition of colony forming ability)” value in series [2] was 34.52%. Further, in series [3], the “Reduced relative colony forming efficiency, MDA-MB-231 (% inhibition of colony forming ability)” value turned out to be 30.75%. The “Reduced relative colony forming efficiency, PC-3 (% inhibition of colony forming ability)” value in series [4] is recorded as 90.63%. Moreover, the “Reduced relative colony forming efficiency, T24 (% inhibition of colony forming ability)” value in series [5] came out at 70.94%.
“TATCGCCGCCGTGAGTACAA (antisense dT*dA*dT*dC*dG*dC*dC*dG*dC*dC*dG*dT*dG*dA*dG*dT*dA*dC*dA*dA) [AS-II-1768-20]”: the “Reduced relative colony forming efficiency, A549 (% inhibition of colony forming ability)” value in series [1] came out at 86.8%. Besides, the “Reduced relative colony forming efficiency, MIA PaCa-2 (% inhibition of colony forming ability)” value in series [2] is on record as 60.36%. Besides, the “Reduced relative colony forming efficiency, MDA-MB-231 (% inhibition of colony forming ability)” value in series [3] stood at 91.56%. For the same sequence, in series [4], the “Reduced relative colony forming efficiency, PC-3 (% inhibition of colony forming ability)” value is 86.36%. Besides, the “Reduced relative colony forming efficiency, T24 (% inhibition of colony forming ability)” value in series [5] is reported as 74.56%.
For “TTCATGGTGTGGCTAGTTGG (antisense dT*dT*dC*dA*dT*dG*dG*dT*dG*dT*dG*dG*dC*dT*dA*dG*dT*dT*dG*dG) [AS-II-1438-20]”, in that order: 51.27%, 42.13%, 69.06%, 83.96% and 43.7%.
For “CAGAATATCGACGCAAAAGA (dC*dA*dG*dA*dA*dT*dA*dT*dC*dG*dA*dC*dG*dC*dA*dA*dA*dA*dG*dA) [AS-II-909-20]”, in that order: 78.68%, 46.13%, 45.96%, 84.86% and 78.57%.
Consider “GGCCCAGATCACCCCTAAAT (antisense dG*dG*dC*dC*dC*dA*dG*dA*dT*dC*dA*dC*dC*dC*dC*dT*dA*dA*dA*dT) [AS-II-2128-20]”, for which the “Reduced relative colony forming efficiency, A549 (% inhibition of colony forming ability)” value in series [1] is recorded as 87.31%. Also, in series [2], the “Reduced relative colony forming efficiency, MIA PaCa-2 (% inhibition of colony forming ability)” value came out at 39.23%. The “Reduced relative colony forming efficiency, MDA-MB-231 (% inhibition of colony forming ability)” value in series [3] is listed as 91.3%. Also, in series [4], the “Reduced relative colony forming efficiency, PC-3 (% inhibition of colony forming ability)” value was determined as 88.89%. The “Reduced relative colony forming efficiency, T24 (% inhibition of colony forming ability)” value in series [5] was 83.74%.
Consider “AAACGGCTTCTCACACATAT (antisense dA*dA*dA*dC*dG*dG*dC*dT*dT*dC*dT*dC*dA*dC*dA*dC*dA*dT*dA*dT) [AS-II-2151-20]”, for which the “Reduced relative colony forming efficiency, A549 (% inhibition of colony forming ability)” value in series [1] was 79.19%. The “Reduced relative colony forming efficiency, MIA PaCa-2 (% inhibition of colony forming ability)” value in series [2] amounted to 62.15%. The “Reduced relative colony forming efficiency, MDA-MB-231 (% inhibition of colony forming ability)” value in series [3] amounted to 95.14%. The “Reduced relative colony forming efficiency, PC-3 (% inhibition of colony forming ability)” value in series [4] is 84.86%. In addition, the “Reduced relative colony forming efficiency, T24 (% inhibition of colony forming ability)” value in series [5] was 79.83%.
With “ATGGTACTCGATGGGGAAGA (chemistry not given here) [AS-II-439-20]”, the “Reduced relative colony forming efficiency, A549 (% inhibition of colony forming ability)” value in series [1] is 76.46%. For the same sequence, the “Reduced relative colony forming efficiency, HCT116 (% inhibition of colony forming ability)” value in series [6] is recorded as 64.7%. Besides, the “Reduced relative colony forming efficiency, HepG2 (% inhibition of colony forming ability)” value in series [7] amounted to 73.04%. Further, the “Reduced relative colony forming efficiency, MIA PaCa-2 (% inhibition of colony forming ability)” value in series [2] amounted to 92.69%. Moreover, the “Reduced relative colony forming efficiency, PC-3 (% inhibition of colony forming ability)” value in series [4] is given as 77.66%. For the same sequence, the “Reduced relative colony forming efficiency, T24 (% inhibition of colony forming ability)” value in series [5] came out at 67.84%.
For the sequence “TCGCCTACTCTCTTCTCAAA (antisense dT*dC*dG*dC*dC*dT*dA*dC*dT*dC*dT*dC*dT*dT*dC*dT*dC*dA*dA*dA) [AS-II-1278-20]”, in series [2], the “Reduced relative colony forming efficiency, MIA PaCa-2 (% inhibition of colony forming ability)” value turned out to be 57.05%. Also, the “Reduced relative colony forming efficiency, MDA-MB-231 (% inhibition of colony forming ability)” value in series [3] is reported as 90.68%. Also, the “Reduced relative colony forming efficiency, PC-3 (% inhibition of colony forming ability)” value in series [4] was determined as 85.31%. In series [5], the “Reduced relative colony forming efficiency, T24 (% inhibition of colony forming ability)” value amounted to 65.42%.
